Assay: xn = mol fraction of the nth substance listed

CCCOCCO + CCCO
298.15 K, 101.33 kPa
Conditions	viscosity [mPa·s]
x1 = 0.0085	1.95
x1 = 0.0212	1.945
x1 = 0.0386	1.944
x1 = 0.0573	1.944
x1 = 0.0817	1.943
x1 = 0.0917	1.942
x1 = 0.1295	1.944
x1 = 0.157	1.948
x1 = 0.2095	1.961
x1 = 0.2715	1.976
x1 = 0.323	1.994
x1 = 0.3675	2.01
x1 = 0.4185	2.031
x1 = 0.4527	2.046
x1 = 0.5174	2.072
x1 = 0.5743	2.103
x1 = 0.6243	2.125
x1 = 0.6804	2.151
x1 = 0.7324	2.186
x1 = 0.7821	2.219
x1 = 0.853	2.257
x1 = 0.9063	2.294
x1 = 0.9599	2.326

N#Cc1ccccc1 + CCCO
viscosity [mPa·s], 101.33 kPa
Conditions	x1 = 0.1072	x1 = 0.2174	x1 = 0.2995	x1 = 0.4082	x1 = 0.5248	x1 = 0.5951	x1 = 0.6992	x1 = 0.7547	x1 = 0.9108
303.15 K	1.447	1.31	1.222	1.138	1.096	1.079	1.066	1.071	1.094
308.15 K	1.308	1.19	1.113	1.037	1.006	0.994	0.986	0.991	1.018
313.15 K	1.187	1.082	1.017	0.955	0.93	0.918	0.913	0.919	0.951

Nc1cccc2ccccc12 + CCCO
viscosity [mPa·s], 101 kPa
Conditions	x1 = 0.02914	x1 = 0.0566	x1 = 0.1072	x1 = 0.1525	x1 = 0.1936	x1 = 0.2308	x1 = 0.2648
293.15 K	2.371	2.516	2.846	3.22	3.628	4.054	4.498
303.15 K	1.836	1.937	2.154	2.392	2.662	2.931	3.222
313.15 K	1.445	1.518	1.674	1.839	2.02	2.211	2.403
323.15 K	1.153	1.21	1.324	1.443	1.57	1.7	1.838

CCCCOCCCOCCCO + CCO
viscosity [mPa·s], 101.33 kPa
Conditions	298.15 K	308.15 K	318.15 K
x1 = 0.05	1.3	1.074	0.896
x1 = 0.1	1.505	1.227	1.015
x1 = 0.15	1.717	1.386	1.137
x1 = 0.2	1.927	1.541	1.256
x1 = 0.25	2.135	1.696	1.369
x1 = 0.3	2.362	1.858	1.497
x1 = 0.35	2.562	2.003	1.597
x1 = 0.4001	2.755	2.14	1.696
x1 = 0.4499	2.94	2.265	1.79
x1 = 0.4999	3.121	2.39	1.879
x1 = 0.5499	3.292	2.51	1.956
x1 = 0.5997	3.453	2.622	2.039
x1 = 0.6501	3.608	2.724	2.114
x1 = 0.6998	3.756	2.821	2.182
x1 = 0.7499	3.899	2.91	2.24
x1 = 0.7999	4.018	2.998	2.306
x1 = 0.8499	4.147	3.088	2.363
x1 = 0.8997	4.271	3.158	2.423
x1 = 0.9498	4.386	3.233	2.466

CCCCn1cc[n+](C)c1.[Cl-] + CCO
viscosity [mPa·s], 101 kPa
Conditions	293.15 K	303.15 K	308.15 K
x2 = 0.4991	75.1	–	–
x2 = 0.7003	–	9.24	8.17

N#Cc1ccccc1 + CCO
viscosity [mPa·s], 101.33 kPa
Conditions	x1 = 0.1051	x1 = 0.2045	x1 = 0.3213	x1 = 0.4131	x1 = 0.4921	x1 = 0.6214	x1 = 0.6673	x1 = 0.769	x1 = 0.9218
303.15 K	0.923	0.891	0.897	0.901	0.912	0.938	0.963	1.006	1.075
308.15 K	0.846	0.817	0.826	0.834	0.849	0.873	0.893	0.935	1.005
313.15 K	0.775	0.75	0.762	0.772	0.785	0.813	0.828	0.87	0.939

Source: the CheMixHub viscosity set
